Results taken from patent US20120295838A1, “Selective poly-substituted glycine antibiotics and related compositions” (priority 2008, published 2012).
Numbered stars: 1 amine (or outer) side, 2 acyl side, 3 side chain; on linkers, the order of the positions; unused ones are H or OH. Square brackets hold non-standard residues; d marks the D form. Ends that are not written are not given here. Peptide text beside a SMILES is read from it. Gly(N-CH2CH2-imidazol-4-yl) = O=C(O)CNCCc1c[nH]cn1; X1 = CC(C)[C@H](C)N(CC(=O)[*:2])[*:1]; Nspe = C[C@H](NCC(=O)O)c1ccccc1; Nphe = O=C(O)CNCc1ccccc1; Nlys = NCCCCNCC(=O)O

Tests used:
[1] = test system: Proteus mirabilis ATCC 35659; test: Broad-spectrum antibacterial MIC; format: cell-based; conditions: Table 7B; 10% hemolytic dose divided by MIC; P. mirabilis ATCC 35659
Protocol: (§1) Antibacterial assays. MICs were determined according to CLSI M7-A6 protocols in a 96-well microtiter plate. In test wells, 50 uL bacterial inoculum (5×10^5 CFU/ml) in Mueller-Hinton broth (MHB) was added to 50 μL peptoid solution in MHB (prepared by 1:2 serial dilutions). Positive controls contained 50 μL inoculum and 50 μL MHB without peptoid. […] MIC values reported were reproducible between three independent experimental replicates, each consisting of two parallel trials. Broad-spectrum antimicrobial susceptibility testing was performed against BSL2 pathogens by Nova Biologicals, Inc. (Conroe, Tex.).
(§2) Broad-spectrum antibacterial assays. MICs of compounds were determined by microdilution procedure in Mueller-Hinton broth (MHB) in accordance with CLSI M7-A6 protocols in a manner similar to that described for the screen antibacterial assays. Inoculated microtiter plates were incubated at 35° C. for 24 hours prior to the result being recorded. Four ATCC strains that were used as standards are recommended by CLSI: Pseudomonas aeruginosa ATCC 27853, Escherichia coli ATCC 25922, Staphylococcus aureus ATCC 29213 and Enterococcus faecalis ATCC 29212. Other strains from the ATCC collection include Proteus vulgaris ATCC 49132, Proteus mirabilis ATCC 35659, Klebsiella pneumoniae ATCC 33495, Enterobacter aerogenes ATCC 35029 and Serratia marcescens ATCC 13880. S. aureus NRS100 (COL) is a well characterized methicillian-resistant S. aureus (MRSA) strain. The strains S. aureus VAN1 and S. aureus VAN2, vancomycin-resistant MRSA strains that were isolated in Michigan and Pennsylvania, were the first vancomycin-resistant strains clinically isolated. S. aureus NRS 119 and S. aureus NRS 120 are linezolid-resistant isolates from the Network on Antimicrobial Resistance in S. aureus (NARSA) collection. E. faecalis 99 and E. faecium 106 are vancomycin-resistant enterococcal strains.

[2] = test system: Serratia marcescens ATCC 13880; test: Broad-spectrum antibacterial MIC; format: cell-based; conditions: Table 7B; 10% hemolytic dose divided by MIC; S. marcescens ATCC 13880
Protocol: as §1, §2

[3] = RP-HPLC solvent composition at elution as measure of molecular hydrophobicity; format: physicochemical; conditions: for HPLC elution solvent: Table 1, percent acetonitrile in water, 0.1% (v/v) TFA at HPLC elution; for % ACN at RP-HPLC elution: Table 8, gradient 5 to 95% ACN over 45 min, 0.2 ml/min, average of three replicates
From the text: An initial set of 15 ampetoid analogs was synthesized to determine whether peptoids are affected by structural and sequence modifications in a manner consistent with AMP activities. The designs for ampetoids in this library were derived from two antibacterial and selective amphipathic dodecamers, 1 and 2. Peptoid 1 [H-(Nlys-Nspe-Nspe)4-NH2] is composed of 2/3 Nspe, the peptoid analog of phenylalanine, and 1/3 Mys, the peptoid analog of lysine (see FIG. 1 for the structures of representative peptoid monomers and corresponding N-substituents). Peptoid 2 [H-(Mys-Nssb-Nspe)4-NH2] contains 1/3 isoleucine-like Nssb monomers in place of Nspe. The variant sequences were designed to effect changes in chirality, length, hydrophobicity, charge, and amphipathicity. All of these compounds were tested for antibacterial activity against representative BSL1 Gram-negative (E. coli JM109) and Gram-positive (B. subtilis BR151) bacterial strains. As an initial measure of selectivity, the lytic activity of the peptoids was determined against human erythrocytes. Table 1 summarizes the sequences synthesized, the solvent composition at RP-HPLC elution as a relative measure of molecular hydrophobicity, and antibacterial and hemolytic activities.
Following synthesis, peptoid oligomers can be cleaved from the resin, simultaneously removing the tert-butoxycarbonyl (Boc) protecting group from Mys residues, by treatment with 10 ml 2,2,2-trifluoroacetic acid (TFA)/triisopropylsilane/H2O (95:2.5:2.5 by volume) for 30 min. The cleavage mixture is then diluted with 25 ml 50% aqueous acetonitrile, frozen, and lyophilized. Dilution and lyophilization is repeated twice more in order to remove excess TFA. Subsequent to cleavage, peptoids are each purified to >97% homogeneity by preparative scale reversed-phase HPLC using a Waters Prep LC 4000 system, with Waters 2487 dual-wavelength UV detection, and gradient elution (solvent A, 0.1 vol % trifluoroacetic acid (TFA) in water; solvent B, 0.1 vol % TFA in acetonitrile) through a Vydac (Hysperia, Calif.) 214TP101550 C4 peptide/protein column (10-15 μm, 300 Å, 5×25 cm). Following prep HPLC, peptoid purities and crude yields were determined from analytical scale HPLC, performed with a Waters 2695 Separations Module with a Waters 2487 dual-wavelength UV detector and gradient elution (solvent A, 0.1 vol % TFA in water; solvent B, 0.1 vol % TFA in acetonitrile) through a Vydac C4 214TP53 peptide/protein column (5 μm, 300 Å, 3.2×250 mm). The precise gradient employed for HPLC depended on the identity and hydrophobicity of the oligomer in question. All analytical HPLC was performed at 0.5 ml/min flow and 58° C. Preparative HPLC was performed at 50 ml/min flow and room temperature.
Compound synthesis and purification. Peptoids were synthesized using an ABI 433A peptide synthesizer (Applied Biosystems, Inc.) on Rink amide MBHA resin (Novabiochem, Inc.) using the submonomer approach^3. Briefly, bromoacetic acid, activated by diisopropylcarbodiimide was used to form a bromocetylated intermediate on the terminal amide group. Bromide was then substituted with the desired primary amine through SN2 displacement to build the peptoid chain. The amines used in peptoid synthesis include benzylamine, octadecylamine, (s)-(+)-2-amino-3-methylbutane, (s)-α-methylbenzylamine, (r)-(α-methylbenzylamine (all purchased from Sigma-Aldrich), and N-tert-butoxycarbonyl-1,4 diaminobutane (Mys) that was made using a published procedure^83. Resin-bound peptoids were then exposed to a mixture of trifluoroacetic acid (TFA): triisopropylsilane:water (95:2.5:2.5, v:v:v) for ten minutes to cleave peptoids from the solid phase. Peptoids were purified by reversed-phase HPLC (RP-HPLC) (Waters Corporation) using a C18 column and a linear acetonitrile/water gradient. A final purity greater than 97% as measured by analytical RP-HPLC (Waters Corporation) was achieved, and the identity of each molecule was checked using electrospray ionization mass spectrometry. […]

six strains of S. aureus = test: Broad-spectrum antibacterial MIC, summary over S. aureus strains; format: cell-based; conditions: text summary of Table 7B; 10% hemolytic dose / MIC
Protocol: The activities of ampetoids tested against BSL2 Gram-positive strains, however, compared very favorably to those of pexiganan.
as §2, with “E. faecalis 99 and E. faecium 106 are vancomycin-resistant enterococcal strains.” left out

| Compound | Selectivity ratio (SR) [1] | Selectivity ratio (SR) [2] | HPLC elution solvent [3] [%] | % ACN at RP-HPLC elution ([3]; C18 column) [% ACN] | HPLC ELUTION ([3]; Table 2, percent acetonitrile in H2O, C18 column, 0.1% TFA, pH 1) [%] | HPLC elution (% ACN) ([3]; Table 5, average of three injections, linear 5%-95% acetonitrile/water (0.1% TFA) over 45 minutes, C18 column) | selectivity ratios, range over S. aureus strains (six strains of S. aureus) |
| --- | --- | --- | --- | --- | --- | --- | --- |
| CC(C)[C@H](C)N(CC(=O)N(CC(=O)N(CCCCN)CC(=O)N(CC(=O)N(CC(=O)N(CCCCN)CC(=O)N(CC(=O)N(CC(=O)N(CCCCN)CC(=O)N(CC(=O)N(CC(N)=O)[C@@H](C)c1ccccc1)[C@@H](C)C(C)C)[C@@H](C)c1ccccc1)[C@@H](C)C(C)C)[C@@H](C)c1ccccc1)[C@@H](C)C(C)C)[C@@H](C)c1ccccc1)C(=O)CNCCCCN [1-Nsdp2,5,8,11, H-(Nlys-Nsdp-Nspe)4-NH2] (H-[Nlys][X1][Nspe][Nlys][X1][Nspe][Nlys][X1][Nspe][Nlys][X1][Nspe]-NH2) | <1.5 | <1.5 | – | – | – | – | – |
| C[C@@H](c1ccccc1)N(CC(=O)N(CCc1cnc[nH]1)CC(=O)N(CCCCN)CC(=O)N(CC(=O)N(CC(=O)N(CCCCN)CC(=O)N(CC(=O)N(CCc1cnc[nH]1)CC(N)=O)[C@@H](C)c1ccccc1)[C@@H](C)c1ccccc1)[C@@H](C)c1ccccc1)C(=O)CN(CCCCN)C(=O)CN(C(=O)CN(C(=O)CNCCCCN)[C@@H](C)c1ccccc1)[C@@H](C)c1ccccc1 [1-Nhis6,12, H-(Nlys-Nspe-Nspe-Nlys-Nspe-Nhis)2-NH2] (H-[Nlys][Nspe][Nspe][Nlys][Nspe][Gly(N-CH2CH2-imidazol-4-yl)][Nlys][Nspe][Nspe][Nlys][Nspe][Gly(N-CH2CH2-imidazol-4-yl)]-NH2) | – | – | 37 | 51.4 | – | – | – |
| GIGKFLKKAKKFGKAFVKILKK-NH2 [pexiganan, reference compound] | <1.4 | <1.4 | 38 | 50.2 | 38 | 50.2 | 2.8-23 |
| NCCCCNCC(=O)N(CC(=O)N(CC(=O)N(CCCCN)CC(=O)N(CC(=O)N(CC(=O)N(CCCCN)CC(=O)N(CC(=O)N(CC(=O)N(CCCCN)CC(=O)N(CC(=O)N(CC(N)=O)Cc1ccccc1)Cc1ccccc1)Cc1ccccc1)Cc1ccccc1)Cc1ccccc1)Cc1ccccc1)Cc1ccccc1)Cc1ccccc1 [1achiral, H-(Nlys-Npm-Npm)4-NH2] (H-[Nlys][Nphe][Nphe][Nlys][Nphe][Nphe][Nlys][Nphe][Nphe][Nlys][Nphe][Nphe]-NH2) | <2.4 | 2.4 | – | 60.4 | – | – | 19-39 |
